Columns and labels:
androgen receptor = target: T1, androgen receptor (Homo sapiens, UniProt P10275, T878A); experiment: Androgen receptor degradation assay using Western blot analysis; format: cell-based; conditions: for remaining activity at 0.1 µM: 24 h, read-out: Androgen Receptor Remaining (%), LNCaP.FGC cells, 100 nM, 24 hr, normalized to GAPDH, untreated cells = 100%; for DC50: read-out: AR DC50 (concentration needed for 50% AR degradation), LNCaP.FGC cells, serial 10x dilutions from 100 nM
T1 construct: host or cells: LNCaP.FGC
T1 sequence (P10275 whole entry T878A): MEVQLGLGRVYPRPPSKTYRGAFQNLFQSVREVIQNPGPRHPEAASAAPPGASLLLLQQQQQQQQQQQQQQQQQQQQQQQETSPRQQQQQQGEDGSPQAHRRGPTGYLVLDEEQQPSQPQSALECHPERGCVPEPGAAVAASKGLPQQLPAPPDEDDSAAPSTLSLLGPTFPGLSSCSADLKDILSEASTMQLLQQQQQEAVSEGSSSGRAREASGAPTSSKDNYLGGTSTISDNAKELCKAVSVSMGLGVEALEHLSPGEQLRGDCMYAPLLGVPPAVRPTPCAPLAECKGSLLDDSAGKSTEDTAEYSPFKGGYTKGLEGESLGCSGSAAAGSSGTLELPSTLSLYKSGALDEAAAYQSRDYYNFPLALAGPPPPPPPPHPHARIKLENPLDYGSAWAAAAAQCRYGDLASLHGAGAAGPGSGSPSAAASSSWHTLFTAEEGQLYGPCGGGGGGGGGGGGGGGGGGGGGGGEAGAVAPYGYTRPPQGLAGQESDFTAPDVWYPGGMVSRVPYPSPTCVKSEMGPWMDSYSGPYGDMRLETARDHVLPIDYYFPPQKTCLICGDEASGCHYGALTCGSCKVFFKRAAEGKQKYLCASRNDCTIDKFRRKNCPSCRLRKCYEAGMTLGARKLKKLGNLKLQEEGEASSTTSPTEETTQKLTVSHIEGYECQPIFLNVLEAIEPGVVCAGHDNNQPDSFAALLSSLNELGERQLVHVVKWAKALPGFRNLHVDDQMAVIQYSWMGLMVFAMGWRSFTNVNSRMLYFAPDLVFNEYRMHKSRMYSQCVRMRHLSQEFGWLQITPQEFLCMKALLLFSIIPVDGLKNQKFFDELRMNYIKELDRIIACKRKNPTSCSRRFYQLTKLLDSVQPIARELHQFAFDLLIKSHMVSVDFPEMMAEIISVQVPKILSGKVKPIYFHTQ
T1 sequence (Q96SW2 whole entry partner): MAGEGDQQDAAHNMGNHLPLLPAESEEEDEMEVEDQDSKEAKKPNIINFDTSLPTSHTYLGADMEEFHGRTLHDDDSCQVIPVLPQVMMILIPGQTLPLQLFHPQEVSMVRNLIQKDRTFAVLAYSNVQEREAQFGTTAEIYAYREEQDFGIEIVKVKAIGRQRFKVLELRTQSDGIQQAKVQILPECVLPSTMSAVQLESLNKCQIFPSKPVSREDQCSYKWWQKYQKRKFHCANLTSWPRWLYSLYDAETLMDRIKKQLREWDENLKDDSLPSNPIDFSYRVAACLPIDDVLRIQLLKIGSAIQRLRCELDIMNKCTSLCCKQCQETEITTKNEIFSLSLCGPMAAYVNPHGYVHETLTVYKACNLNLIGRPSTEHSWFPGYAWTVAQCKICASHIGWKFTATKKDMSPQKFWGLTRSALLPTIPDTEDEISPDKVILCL
Method in brief: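 LNCaP.FGC cells (2×10^5/well) treated with 10-fold serial dilutions in RPMI from 100 nM stock; untreated cells as negative control. AR Western signal normalized to GAPDH, expressed as % remaining versus untreated (100%). DC50 derived from calibration curve of serial dilutions.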

[1] = test system: Androgenetic Alopecia (AGA) Mice Model; experiment: In vivo hair regrowth efficacy in androgenetic alopecia (AGA) mice model; conditions: DHT pre-treated male C57BL/6 mice, topical 3.5 μg/cm2/day once daily, day 20; DHT+vehicle group 3.5
Method: Seven-week old male C57BL/6 mice (with black fur) purchased from BioLASCO Taiwan Co., Ltd. were grouped 6 to 8 mice per cage, and intraperitoneally administered with dihydrotestosterone (DHT) (1 mg/day, dissolved in corn oil) or corn oil alone once daily for four days. DHT is an agonist to androgen receptors, which can be used to induce symptoms of androgenetic alopecia.
Four days later, the dorsal region of the mice was depilated with hair removal cream (Nair Sensitive Hair Removal Cream, 100 mg to 200 mg per mouse). After hair removal, the skin color was recorded by photographs with a resolution of 4032*3024 pixel (day 1, D1). On the next day (D2), the test solutions of the compound 29 and compound 33 in a vehicle were prepared (3.5 μg/cm^2/day), and each test solution or vehicle alone was topically administered on the depilated region once daily for 20 days. The hair removal cream, the test solution and the vehicle were separately rubbed into the dorsal region of mice. The photographs underwent analysis using a self-developed software that utilized auto-image segmentation, primarily focusing on the border of the depilation area. This segmentation process involved classifying different regions within the images. […] The hair regrowth efficacy could be evaluated by the photographs and/or the skin color score.

| Compound | remaining activity at 0.1 µM (androgen receptor) | DC50 (androgen receptor) | average skin color score (1 = depilated skin, 8 = fully regrown hair) [1] |
| --- | --- | --- | --- |
| CCn1c2c(c3ccc(OCCCN4CCN(c5ccc(C(=O)N[C@H]6CC[C@H](Oc7ccc(C#N)c(Cl)c7)CC6)nn5)CC4)cc31)C(=O)N(C1CCC(=O)NC1=O)C2=O (stereo partly drawn) [Compound 29] | 31% | 10 to 25 nM | 8 |
| CCn1c2c(c3ccc(OCCN4CCN(c5ccc(C(=O)N[C@H]6CC[C@H](Oc7ccc(C#N)c(Cl)c7)CC6)nn5)CC4)cc31)C(=O)N(C1CCC(=O)NC1=O)C2=O (stereo partly drawn) [Compound 33] | 27% | 10 to 25 nM | 6.5 |

— patent US20250197409A1, “BIFUNCTIONAL COMPOUND AND PHARMACEUTICAL COMPOSITION COMPRISING THE BIFUNCTIONAL COMPOUND, AND METHOD FOR TREATING ANDROGEN RECEPTOR RELATED DISEASE BY USING THE SAME” (ANHORN MEDICINES CO., LTD., priority 2022, published 2025)
